We go through one compound from publication PMC3397457, “Preclinical Evaluation of Anticancer Efficacy and Pharmacological Properties of FBA-TPQ, a Novel Synthetic Makaluvamine Analog” (Marine Drugs, 2012).

The test system of one series is HPAC cells. As to the kind of experiment: Annexin V apoptosis assay/flow cytometry, HPAC. The class given is cell-based, human. The conditions noted are these: 1 µM, 48 h. As for the experimental part:
(§1) The apoptotic cells were detected using a method reported previously. […] In HPAC cells, a 1 µM concentration of FBA-TPQ increased the apoptotic index two-fold higher than that seen in control cells (P < 0.01). […] In the Mia PaCa-2 cells, FBA-TPQ at 1 µM led to a three-fold increase in apoptosis (P < 0.01).
(§2) Following a similar protocol as above, cells in early and late stages of apoptosis were detected using an Annexin V-FITC apoptosis detection kit from BioVision (Mountain View, CA, USA), according to the manufacturer’s protocol. For apoptosis experiments, 2–3 × 10^5 cells were exposed to the test compound (0, 0.1, 0.5 and 1.0 µM) and incubated for 48 h prior to analysis. Cells were collected and washed with serum-free media. Cells were then re-suspended in 500 µL of Annexin V binding buffer followed by addition of 5 µL of Annexin V-FITC and 5 µL of propidium iodide (PI). The samples were incubated in the dark for 5 min at room temperature and analyzed with a Becton Dickinson FACSCalibur instrument (Ex = 488 nm; Em = 530 nm). Cells that were positive for Annexin V-FITC alone (early apoptosis) and Annexin V-FITC and PI (late apoptosis) were counted. The apoptotic index was calculated against the untreated control cells.

A further series deals with Panc-1 cells. Description: Annexin V apoptosis assay/flow cytometry, Panc-1. The class given is cell-based, human. The conditions noted are these: Panc-1, 1 µM, 48 h. The protocol:
as §1, §2

Series [1] can be described thus: MTT cell survival assay, IMR-90 normal fibroblasts. The conditions noted are these: human, IMR-90 normal fetal fibroblast cells, read-out: Cytotoxicity IC50. The format is cell-based. The protocol: We evaluated the effects of FBA-TPQ on the survival of several human pancreatic cancer cell lines, including HPAC (p53^+/+), Panc-1(p53^+/−), and Mia PaCa-2(p53^+/−), as well as normal IRM90 fetal fibroblast cells (Figure 2a). Cells were exposed to various concentrations of the test compound (0–10 µM) for 72 h, and cell survival rates were determined by the MTT assay, using a procedure reported previously. FBA-TPQ exerted potent effects against the test cancer cell lines, leading to significant decreases in cell viability.
Human pancreatic cancer cells were obtained from the American Type Culture Collection (Rockville, MD). All cell culture media contained 10% FBS and 1% penicillin/streptomycin. […]
The effect of the test compound on human pancreatic cancer cell viability, expressed as the percentage of cell survival, was determined using the MTT (3-(4,5-dimethylthiazol-2-yl)-2,5-diphenyl tetrazolium bromide) assay. […] The absorbance at 570 nm was recorded using an OPTImax microplate reader (Molecular Devices; Sunnyvale, CA, USA). The cell survival percentages were calculated by dividing the mean OD of compound-containing wells by that of DMSO-containing control wells. […]
A general note: Formazan colour is commonly taken as a measure of viable cells.

Series [2] has as its system prostate, breast, and ovarian cancer cell lines. Also noted: method as in PMID 19274441, PMID 19451594, PMID 21673964. The note with it: cited from earlier work.
In series [3] the test system is murine hepatic S9 fractions containing Phase I and II metabolic enzymes. As to the kind of experiment: S9 metabolism. The class given is in vitro ADME. The note with it: mouse hepatic S9, 10 μM, 60 min incubation. The protocol: As a preliminary study of the metabolism of FBA-TPQ, the compound was incubated with S9 fractions containing Phase I and Phase II metabolic enzymes and their co-factors for 15, 30, 45, or 60 min. […] No specific peaks that seemed to correspond to unique metabolites were identified using the current RRLC method.
A preliminary study of the metabolism of FBA-TPQ was done using murine hepatic S9 fractions containing Phase I and II metabolic enzymes. […] Duplicate aliquots of the mixtures were taken at 0, 15, 30, 45, and 60 min, and the samples were processed and analyzed. The percent of FBA-TPQ that was metabolized by Phase I and Phase II enzymes was calculated by comparing the initial concentration of the iminoquinone to the measured concentration following incubation.

Series [4] in a line: Stability in plasma and tissue samples. The format is in vitro ADME, mouse. The conditions noted are these: RE within ±15%. The protocol: The stability of FBA-TPQ was evaluated at two concentrations (0.5 and 5.0 µM). […] At the designated time points, the samples were extracted and analyzed using the established RRLC analytical method. The stability of FBA-TPQ was assessed by comparing the initial concentration (time 0) with the final concentration following incubation of the compound at the noted temperatures, and expressing this difference as a percentage of the initial concentration.

The nature of series [5]: Plasma protein binding by micro-ultrafiltration. The class given is in vitro ADME. The conditions noted are these: pooled mouse plasma, 37 °C 1 h, read-out: bound to plasma proteins (converted). The protocol: To determine the extent to which FBA-TPQ is bound by plasma proteins, pooled plasma samples were examined for their capacity to bind the compound at concentrations of 0.5 μM and 5 μM. FBA-TPQ was considerably bound to proteins in mouse plasma, with 72.32% ± 2.53%; and 77.78% ± 1.17% of the compound being bound to plasma proteins at concentrations of 0.5 μM and 5.0 μM, respectively. Extensive binding of a candidate compound to plasma proteins can impair its biodistribution and may therefore impact its therapeutic efficacy. However, compounds that are highly bound to proteins display longer half-lives, durations of action, and higher volumes of distribution.
The extent of binding to mouse plasma proteins by FBA-TPQ was determined using a micro-ultrafiltration system as previously described. FBA-TPQ was dissolved in methanol and added to pooled mouse plasma to yield final concentrations of 0.5 µM and 5.0 µM. Control solutions were prepared in methanol to account for non-specific binding of FBA-TPQ to the filter membranes. Duplicate preparations of each concentration were incubated at 37 °C for 1 h, before being placed into the sample reservoirs of Amicon Centrifree® ultrafiltration tubes (30 kDa exclusion; Millipore).

For the compound `O=C1C(NCc2ccc(F)cc2)=CC2=NCCc3c[nH]c1c32` [FBA-TPQ, 7-(4-fluorobenzylamino)-1,3,4,8-tetrahydropyrrolo[4,3,2-de]quinolin-8(1H)-one], in the series on HPAC cells, the “increase of apoptotic index vs control cells” value was “two-fold”. In the series with Panc-1 cells, the “increase in apoptosis vs control cells” value was “four-fold”. Also, the half-inhibitory concentration (IC50) (usually the point on the concentration scale where inhibition reaches its midpoint) at 72 h in series [1] came out at 5.82 ± 0.46 µM. The IC50 values entry in series [2] is reported as “nanomolar/low micromolar”. Also, the “compound metabolized by Phase I components” value in series [3] was “approximately 14.3%”. Also, in series [3], the “compound metabolized by Phase II components” value is listed as about 1.8%. The “stability in plasma and tissue samples” value in series [4] (3 months at −80 °C) was “stable”; in series [4] (2 h at 22 °C following three freeze/thaw cycles (−20 to 22 °C)), “stable”; in series [4] (24 h after preparation at 22 °C, low and high concentrations) it was “stable”. The fraction unbound at 1 h, 0.5 µM in series [5] (0.5 μM) is 0.277. Further, the fraction unbound at 1 h, 5 µM in series [5] (5.0 μM) was 0.222.
